Laboratory results: patent US9921212B2, “Preventive and therapeutic drug for cartilaginous hyperplasia and method of screening for the same” (KYOTO UNIVERSITY, priority 2014, dated 2018)

Columns and labels:
[1] = system: SOX9; experiment: mRNA expression of SOX9 in chondroprogenitor cells with forskolin and SQ22536 added; type: cell-based, human; details: wild-type and mutant-type chondroprogenitor cells
Experimental: (§1) mRNA was isolated from each cell using an RNeasy Mini Kit (Qiagen). cDNA was synthesized via reverse transcription using 1 μg of the obtained total RNA as a template and a Superscript III reverse transcriptase (Invitrogen). A standard curve for quantitative real-time PCR was created to conduct analysis. Real-time PCR analysis was conducted using a Power SYBR Green qPCR mastermix (Invitrogen) and a StepOne real-time PCR system (ABI) for quantitative determination.
In order to examine whether or not the […] signal transduction pathway is involved in cartilaginous hyperplasia, analysis was conducted using forskolin, which is an adenylate cyclase activator, and SQ22536, which is an adenylate cyclase inhibitor. This test was conducted by introducing a human SOX9 promoter into chondroprogenitor cells, immediately treating the cells with 10 μM forskolin (CALBIOCHEM) or 10 μM SQ22536 (Sigma-Aldrich), and incubating cells for 24 hours so as to determine luciferase activity. As a result, the SOX9 promoter activity in mutant-type chondroprogenitor cells treated with forskolin increased to a level 2.3 times that of mutant-type chondroprogenitor cells (control) treated with a base (DMSO) (FIG. 7D). Meanwhile, the SOX9 promoter activity in mutant-type chondroprogenitor cells treated with SQ22536 decreased to a level half that in the control (FIG. 7D).

[2] = system: human SOX9 promoter; experiment: human SOX9 promoter luciferase reporter activity in chondroprogenitor cells; type: cell-based; details: mutant-type chondroprogenitor cells, 10 μM, 24 hours
Source text: In order to examine SOX9 regulation, human SOX9 promoter activity in chondroprogenitor cells was confirmed. A reporter construct prepared by inserting a −927- to +84-bp human SOX9 promoter region (transcription start site: 0) into a pGL3-luciferase reporter plasmid (Promega) in accordance with Ushita M et al., Osteoarthritis and cartilage/OARS, Osteoarthritis Research Society. 2009; 17(8): 1065-75 was used for confirmation (FIG. 7A and Table 2). Chondroprogenitor cells obtained by the above method were seeded on a 6-well plate (50000 cells/well). A FuGENE 6 transfection reagent was used for transfection (2 μg DNA/well). Twenty four hours later, luciferase activity was determined using a Dual-Luciferase Reporter Assay Kit (Promega) and a Centro XS^3 LB 960 Microplate Luminometer (BERTHOLD) for calculation of promoter activity. […] Next, in order to identify mutation of a site responsible for NLRP3-dependent responsiveness, reporter constructs each having a mutation in an NFAT-binding sequence, an AP-1-binding sequence, an NF-κB-binding sequence, an Sp1-binding sequence, or an CREB/ATF-binding sequence were prepared as listed in Table 3. These mutated reporter constructs were transfected into chondroprogenitor cells in the above manner to confirm promoter activity. […]

[3] = system: mutant-type chondroprogenitor cells; experiment: 3D pellet culture, size of cartilaginous pellets (Alcian Blue stained area), mutant-type; type: cell-based, human; details: added during 3D pellet culture
Experimental: Chondroprogenitor cells obtained by the above method were cultured in a cartilage induction medium containing 5 ng/mL FGF2 and 10 ng/ml TGFβ3 for 3 days. Then, 2.5×10^5 cells were centrifuged to form a pellet, followed by culture in a cartilage induction medium containing 0.5 ml of 40 ng/ml PDGF-BB and 1% FCS, as in the case of 2D micromass culture. Six days later, 10 ng/ml TGFβ3 was further added for culture. Ten days later, PDGF-BB was substituted with 50 ng/ml BMP4 (WAKO). 3D pellet culture was mained at 37° C. in 5% CO2 for 28 days.
In order to examine the chondrocytes induced via 2D micromass culture and those induced via 3D pellet culture, the cells obtained by 2D micromass culture were fixed with 4% paraformaldehyde (PFA) for 1 hour and stained with 1% Alcian Blue (pH 1.0) (Sigma-Aldrich), and the cells obtained by 3D pellet culture were fixed with 4% paraformaldehyde (PFA) for 1 hour and stained with 0.1% Alcian Blue (pH 1.0) (Sigma-Aldrich). Further, immunostaining was carried out using an anti-COL2 antibody (Thermo Scientific). Alcian blue is a reagent for detecting an extracellular matrix secreted by chondrocytes, and COL2 is a gene that is expressed in a chondrocyte-specific manner.
Further, the influence of adenylate cyclase was examined with the addition of forskolin and SQ22536 during 3D pellet culture. […]

[4] = system: SOX9; experiment: 2D micromass culture with inhibitor added, SOX9 expression; type: cell-based, human; details: 10 μM or 1 μg/mL
Experimental: (§2) Chondroprogenitor cells (1.5×10^5 cells) obtained via the above method were suspended in a cartilage induction medium containing 40 ng/ml PDGF-BB and 1% FCS and the suspension was spotted in the form of […] drops on a fibronectin-coated 24-well plate (BD), followed by culture. In this case, the medium was replaced every three days. Six days later, 10 ng/ml TGFβ3 was further added for culture. Ten days after the start of 2D micromass culture, PDGF-BB was substituted with 50 ng/ml BMP4 (WAKO). 2D micromass culture was performed at 37° C. in 5% CO2 for 14 days.
as §1
Further, 2D micromass culture was performed with the addition of 10 μM or 1 μg/mL Ac-YVAD-CHO. As a result, there was no influence in cartilaginous hyperplasia (FIGS. 6A, 6B, 6D, 6E, 6F, and 6H) or SOX9 expression (FIGS. 6C and 6G).

[5] = system: mutant-type iPSC-derived chondrocytes; experiment: 2D micromass culture with inhibitor added, cartilaginous hyperplasia (pellet size, GAG); type: cell-based, human; details: 10 μM or 1 μg/mL
Experimental: as §2
Subsequently, quantitative analysis of the amount of DNA and the glycosaminoglycan production amount after chondrocyte differentiation was conducted. The amount of DNA was determined using a Pico Green dsDNA Quantitation kit (Invitrogen) in the manner described in Nasu A, et al., PloS one. 8(1): e53771 (2013). The extracellular matrix production amount was determined using Blyscan glycosaminoglycan Assay (Biocolor) in accordance with the manufacturer's protocol. As a result, no difference in the amount of DNA in chondrocytes was found between wild-type iPSC-derived cartilage tissue and mutant-type iPSC-derived cartilage tissue in both cases of 2D micromass culture and 3D pellet culture (FIGS. 3B and 3C). […]

Compound: Nc1ncnc2c1ncn2C1CCCO1 (stereo not shown) [SQ22536, 9-(tetrahydro-2-furanyl)-adenine]
- effect on mRNA expression of SOX9, relation to SOX9 promoter activity data [1]: correlated
- SOX9 promoter activity, decrease relative to control treated with a base (DMSO) [2]: half
- size, decrease relative to control treated with a base (DMSO) [3]: 2.1 times less

Compound: C=C[C@@]1(C)CC(=O)[C@]2(O)[C@@]3(C)[C@@H](O)CCC(C)(C)[C@@H]3[C@H](O)[C@H](OC(C)=O)[C@@]2(C)O1 [forskolin]
- SOX9 promoter activity, increase relative to control treated with a base (DMSO) [2]: 2.3 times
- size, increase relative to control treated with a base (DMSO) [3]: 2.0 times

Compound: Ac-YVAD-CHO
- influence in SOX9 expression [4]: no influence
- influence in cartilaginous hyperplasia [5]: no influence
